Test results as given in article PMC7229044, “Triterpenoid acids isolated from Schinus terebinthifolia fruits reduce Staphylococcus aureus virulence and abate dermonecrosis” (Scientific Reports, 2020).
Converted amounts (≈) assume the structure as drawn. “Also recorded” adds a separate entry of the source.

Tests used:
[1] = system: S. aureus AH1263; LAC (agr I); assay: Broth microdilution growth inhibition (MIC); type: cell-based, Staphylococcus aureus; details: for IC50: read-out: IC50 (growth)
Method: (§1) Fraction 430F-F5 and isolated compounds of S. terebinthifolia 1-3, were evaluated for minimum inhibitory concentrations (MICs) against the four agr groups, the biofilm test strain (UAMS-1) and NRS249 (for δ-toxin quantification experiments) following the Clinical Laboratory Standards Institute (CLSI) M100-S23 guidelines for microtiter broth dilution testing. Fraction, compounds 1-3 and vehicle were tested at a concentration range of 4 to 563 μM, using 2-fold serial dilution. The optical density (OD600nm) was measured with a BioTek Cytation 3 multimode plate reader, to calculate percent inhibition of growth. […] Control included the vehicle (DMSO) and antibiotic (Ampicillin, MP Biomedicals Inc). All tests were performed in triplicate and repeated using a new stock of bacteria on a separate day.

[2] = system: S. aureus AH1747 (agr III); assay: Broth microdilution growth inhibition (MIC); type: cell-based, Staphylococcus aureus; details: for IC50: ≥50% growth inhibition; for IC50 / MIC: ND = not detected at 4–563 μM; for MIC: ≥90% growth inhibition
Method: as §1

[3] = system: S. aureus NRS249 (agr I); assay: Broth microdilution growth inhibition (MIC); type: cell-based, Staphylococcus aureus; details: ND = not detected at 4–563 μM; for IC50: ≥50% growth inhibition; for MIC: ≥90% growth inhibition
Method: as §1

[4] = system: S. aureus UAMS-1; assay: Broth microdilution growth inhibition (MIC); type: cell-based, Staphylococcus aureus; details: ND = not detected at 4–563 μM; for IC50: UAMS1, ≥50% growth inhibition
Method: as §1

[5] = system: S. aureus UAMS-929; assay: Broth microdilution growth inhibition (MIC); type: cell-based, Staphylococcus aureus; details: for IC50: UAMS929, read-out: IC50 (growth)
Method: as §1

[6] = system: agr activity, AH1677 (agr I); assay: microbe, parasite or virus in culture; type: cell-based; details: Staphylococcus aureus, 24 h, read-out: IC50 for quorum sensing inhibitory activity
Method: (§2) S. aureus agr reporter strains AH1677 (agr I), AH430 (agr II), AH1747 (agr III) and AH1872 (agr IV) were grown overnight in TSB supplemented with chloramphenicol at 37 °C while shaking at 200 rpm. Cultures of S. aureus were standardized by optical density (OD600nm) matching to a 0.5 McFarland standard to reach a final inoculum density in the wells of 5 × 10^5 CFU mL^−1 in TSB, supplemented with 10 μg/mL chloramphenicol. […] Black sided, 96-well, clear bottom, tissue-culture treated plates (Costar 3603) with final well volume of 200 μL were used for all agr inhibition assays. Plates were incubated in a humidified chamber at 37 °C while shaking at 260 rpm. After 24 hours, plates were removed and OD600 and fluorescence were measured by plate reader at an excitation of 493 nm and emission of 535 nm. All tests were performed in triplicate and repeated using a new stock of bacteria on a separate day.

[7] = system: agr activity, AH1747 (agr III); assay: microbe, parasite or virus in culture; type: cell-based; details: Staphylococcus aureus, 24 h; for IC50: read-out: IC50 for quorum sensing inhibitory activity; for IC90: read-out: IC90 for quorum sensing inhibitory activity
Method: as §2

[8] = system: agr activity, AH1872 (agr IV); assay: microbe, parasite or virus in culture; type: cell-based; details: Staphylococcus aureus, 24 h; for IC50: read-out: IC50 for quorum sensing inhibitory activity
Method: as §2

[9] = system: agr activity, AH430 (agr II); assay: microbe, parasite or virus in culture; type: cell-based; details: Staphylococcus aureus, 24 h; for IC50: read-out: IC50 for quorum sensing inhibitory activity; for IC90: read-out: IC90 for quorum sensing inhibitory activity
Method: as §2

[10] = system: all S. aureus accessory gene regulator (agr) alleles; assay: microbe, parasite or virus in culture; type: cell-based; details: Staphylococcus aureus, read-out: IC50 values for quorum sensing inhibition, range over all four agr types
Method: as §2

[11] = HaCaT cytotoxicity assay (LDH); type: cell-based; details: human, HaCaT keratinocyte cells, read-out: IC50 for cytotoxicity to HaCaTs
Method: The HaCaT cell line was maintained and cytotoxicity of compounds (1-3) were assessed using the LDH cytotoxicity assay as previously described. The Therapeutic Index (TI) was calculated as a ratio of the TD50 (Toxic dose for cytotoxicity at IC50) and ED50 (effective dose for quorum sensing inhibiton IC50): = TD50/ED50 . Cytotoxicity of supernatants was further evaluated using a viability/cytotoxicity assay and imaged with fluorescent microscopy as previously described. All tests were performed in triplicate and the full experiment was repeated on a separate day using fresh cell stock.

[12] = system: S. aureus UAMS-1 biofilm; assay: Biofilm formation, human plasma protein-coated microtiter assay; type: cell-based, Staphylococcus aureus; details: crystal violet; for concentrations that reduced biofilm: for 2 and 3 bacterial growth also reduced
Method: All compounds were examined (2–281 μM) for impact on S. aureus biofilm formation using a human plasma protein-coated assay as previously described[49],[51],[52]. Additionally, to monitor for any growth impact in this assay, the optical density of planktonic cells in the biofilm wells was calculated by transferring the supernatant to a new 96-well plate and reading the OD600nm in a BioTek plate reader. S. aureus isolate UAMS-1 was used for the biofilm assay, and its isogenic sarA mutant (UAMS-929), which has a biofilm deficient phenotype, served as a positive control. All tests were performed in triplicate and repeated using a new stock of bacteria on a separate day.

[13] = system: MRSA (LAC, USA300); assay: Murine model of MRSA skin infection (dermonecrosis); type: in vivo; details: BALB/c mice, intradermal, 1×10^8 CFU LAC with single 50 µg dose at time of infection; vs DMSO vehicle
Description: A previously described murine model of MRSA skin infection was used to determine the efficacy of each Schinus compound as an anti-infective[25]. All animal experiments described herein were approved by and conducted in accordance with the recommendations of the Animal Care and Use Committee at the University of Colorado Anschutz Medical Campus (IACUC protocol number 117217). One day prior to inoculation, the abdominal hair of 8 week old female BALB/c mice was shaved and chemically removed with topical application of Nair for 1 minute. LAC (USA300, AH1263) was grown in TSB media overnight at 37 °C in a shaking incubator (200 rpm). Overnight LAC culture was diluted 1:100 in fresh TSB media and allowed to grow to early log phase (~2 hr to OD600nm 0.5). Cells were washed in sterile PBS and resuspended to achieve an inoculum of 1×10^8 CFU. 50 μL inoculum suspensions containing 1×10^8 CFU LAC and 50 μg of each compound 1-3 (diluted in DMSO) or DMSO vehicle control were injected intradermally into the abdominal skin of each BALB/c mouse. Baseline body weights for the mice were taken prior to injection and each day following. For determination of lesion size, digital photos of skin lesions were taken with an iPhone camera and analyzed with ImageJ software for Mac. Inoculum CFU was verified by serial dilution, plating, and colony counting after overnight incubation of the plate.

[14] = Staphylococcus aureus, UAMS1, ≥90% growth inhibition
[15] = UAMS-929, ≥90% growth inhibition, ND = not detected at 4–563 μM
[16] = AH1263, LAC (agr I), ≥90% growth inhibition, ND = not detected at test range 4–563 μM

| SMILES | MIC ([1]; Staphylococcus aureus) [µM] | IC50 ([1]; Staphylococcus aureus) [µM] | IC50 ([2]; Staphylococcus aureus) [µM] | MIC ([2]; Staphylococcus aureus) [µM] | IC50 ([3]; Staphylococcus aureus) [µM] | MIC ([3]; Staphylococcus aureus) [µM] | IC50 ([4]; Staphylococcus aureus) [µM] | MIC [4, 14] [µM] | MIC ([4]; ≥90% growth inhibition) [µM] | MIC ([5]; Staphylococcus aureus, UAMS929) [µM] | IC50 [6] [µM] | IC50 [7] [µM] | IC90 [7] [µM] | IC50 [8] [µM] | IC50 [9] [µM] | IC90 [9] [µM] | IC50 [10] [µM] | IC50 [11] [µM] | concentrations that increased biofilm formation [12] [µM] | concentrations that reduced biofilm [12] [µM] | further results |
| --- | --- | --- | --- | --- | --- | --- | --- | --- | --- | --- | --- | --- | --- | --- | --- | --- | --- | --- | --- | --- | --- |
| CC(=CCCC(C)C1CCC2(C)C3=CCC4C(C)(C)C(O)CCC4(C)C3CCC12C)C(=O)O (stereo not drawn) [Compound 3, 3α-hydroxytirucalla-7,24Z-dien-26-oic acid] | 141 (≈ 64.4 µg/mL) | 35 | 9 | 18 (≈ 8.22 µg/mL) | 18 | 281 (≈ 128 µg/mL) | 35 | 70 (≈ 32 µg/mL) | 70 (≈ 32 µg/mL) | 70 (≈ 32 µg/mL) | 4 | 9 | 18 | 9 | 9 | 281 | 4 to 9 | 70 | 2 to 16 | ≥ 35 | MIC [2]: 18 µM (≈ 8.22 µg/mL); IC50 ([5]; Staphylococcus aureus): 35 µM; MIC [5, 15]: 70 µM (≈ 32 µg/mL); IC90 ([8]; read-out: IC90 for quorum sensing inhibitory activity): 281 µM |
| CC(=CCCC(C)C1CCC2(C)C3=CCC4C(C)(C)C(=O)CCC4(C)C3CCC12C)C(=O)O (stereo not drawn) [Compound 2, 3-oxotirucalla-7,24Z-dien-26-oic acid] | 563 (≈ 256 µg/mL) | 141 | – | – | 9 | 18 (≈ 8.18 µg/mL) | 35 | 70 (≈ 31.8 µg/mL) | 70 (≈ 31.8 µg/mL) | 70 (≈ 31.8 µg/mL) | 4 | 9 | 281 | 9 | 2 | 281 | 2 to 9 | 70 | 2 to 16 | ≥ 35 | MIC [1, 16]: 563 µM (≈ 256 µg/mL); MIC [3]: 18 µM (≈ 8.18 µg/mL); IC50 ([5]; Staphylococcus aureus): 35 µM; MIC [5, 15]: 70 µM (≈ 31.8 µg/mL); dermonecrotic lesion / skin damage [13]: reduced the dermonecrotic lesion area to nearly undetectable levels; also recorded: decreased MRSA-associated tissue damage to the limit of detection |
| CC1(C)CCC2(C(=O)O)CCC3(C)C(=CCC4C5(C)CCC(=O)C(C)(C)C5CCC43C)C2C1 (stereo not drawn) [Compound 1, 3-oxo-olean-12-en-28-oic acid] | – | – | 141 | 281 (≈ 128 µg/mL) | – | – | > 563 | > 563 | – | – | 18 | 70 | 281 | 35 | 4 | 70 | 4 to 70 | 140 | 2 to 70 | 141 to 281 | MIC [1, 16]: > 563 µM; growth inhibition ([2]; at up to 80 µM): ~ 15% |
